In publication PMC10949195, “Exponential Combination of a and e/g Intracellular Peptide Libraries Identifies a Selective ATF3 Inhibitor” (ACS Chemical Biology, 2024):

Tests used:
[1] = CD spectra of peptide in isolation (helicity, 222/208 ratio); type: physicochemical; conditions: 20 °C, 150 μM total peptide, pH 7.0
Procedure: ATF3, ATF3W_a, and ATF3W_eg and combined hit sequence ATF3W_aeg were synthesized using solid phase peptide synthesis, purified by RP-HPLC, and verified for correct mass using ESI-MS (Figure S3), after which circular dichroism (CD) was used to characterize both ATF3 and antagonist peptides for helicity and interactions as homodimers, as well as heterodimers with the ATF3 target. Global secondary analysis of both homodimeric and heterodimeric systems was carried out at a total peptide concentration of 150 μM to keep equimolar concentrations of each component helix. The 222/208 ratio was used to provide evidence on whether the helices were likely to be monomeric or adopt quaternary structure.[13] […] Furthermore, incubation of ATF3 with ATF3W_aeg elicited a significant conformational change in the sample relative to the average of the component peptides (Figure 6d black line vs red hash), providing compelling evidence for an interaction.[14] In addition, the component PCA hits were examined using CD.
Figure 6 CD spectra data indicates a ATF3-ATF3W_aeg interaction. […] Spectra were next measured at 20 and 5 °C and again post-thermal denaturation (PM 20 °C to establish reversible that unfolding is fully reversible) at a total peptide concentration of 150 μM and presented as mean residue ellipticity (MRE). […]

[2] = test system: M2 macrophages differentiated from the human THP-1 monocytic cell line; assay: THP-1 polarization assay and CCL-4 ELISA; type: cell-based; conditions: M2 macrophages from THP-1 (IL-4 polarized); 20 μM peptide with NLS-TAT appendage; 48 h; versus untreated
Description: ATF3 is a transcriptional repressor that regulates both the extent and duration of pro-inflammatory gene expression.[17] Specifically, ATF3 has been implicated in the transcriptional repression of chemokines including chemokine (C–C motif) ligand 4 (CCL4),[18] also known as macrophage inflammatory protein (MIP-1β), which promotes recruitment of additional immune cells to inflamed tissues. In the context of cancer, ATF3 activity counters antitumor immunity and promotes tumor growth. We therefore explored the effect of the ATF3W-aeg antagonist peptide on CCL4 expression in M2 anti-inflammatory macrophages differentiated from the human THP-1 monocytic cell line. […]
Figure 10 ATF3W-aeg peptide stimulates expression of pro-inflammatory cytokine in M2 macrophages. CCL4 protein levels were measured by ELISA from supernatants of M2 macrophage cultures treated with either 20 μM ATF3W-aeg or negative control peptide (****p < 0.0001). […]
THP-1 cells were seeded in 12-well format at a concentration of 5 × 10^5 cells/well and treated with 7.5 ng/mL Phorbol 12-Myristate 13-Acetate (PMA, Sigma-Aldrich) in RPMI media supplemented with 10% FBS and 55 μM β-mercaptoethanol (BME). […] After 48 h, supernatants were collected and clarified by centrifugation, and the CCL-4 concentration was assessed by ELISA (MIP-1b Human Instant ELISA Kit, ThermoFisher Scientific) according to the manufacturer’s protocol.

[3] = Peptide permeability assay (PAMPA); type: in vitro ADME
Description: Fig S4: CD data for ATF3 interacting with ATF3W-a and ATF3W-eg.
Peptide permeability assay: The PAMPA assay measures permeability across an artificial membrane. This method provides an in vitro model for passive diffusion. Passive diffusion is an important factor in determining transport through the gastrointestinal tract, penetration of the blood brain barrier, as well as transport across cell membranes. Permeability can also be influenced by several other mechanisms including paracellular transport and active uptake or efflux which are not assessed in PAMPA. Therefore, PAMPA provides a simplistic approach to permeability by only measuring a single mechanism. […]
Peptide permeability assay: To evaluate the peptide permeability, the BD™ pre-coated PAMPA plate system was employed. […] The peptide concentrations in both plates were determined by UV spectroscopy after the assembly plate system were incubated at room temperature for 5 hours, and the peptide permeability and mass retention were calculated by using the PAMPA plate system formula which recommended in the manufacture manual. […]
Serum stability: The quantity of peptide detected by LC-MS is plotted relative to the starting point […]
Fig S5: Shown are serum stability of ATF3W-aeg. The quantity of peptide detected by LC-MS is plotted […]

## Ac-ELAALEQKAYALKQENAALEKEVAALEQKIAALK-NH2 (N-terminus and C-terminus assumed) [ATF3W_aeg]
[1]; 10 mM potassium phosphate, 100 mM potassium fluoride
  fractional helicity (fH), peptide in isolation: ~38%
[1]
  222/208 ratio, peptide in isolation: 0.76
[2]
  effect on CCL4 expression (protein in supernatant, ELISA): significantly increased CCL4 expression
[3]; BD pre-coated PAMPA plate system, 200uM peptide in PBS, room temperature, 5 hours, UV spectroscopy
  PAMPA mass retention: 5.8%
[3]; category by Log(Permeability) larger than -6, industry standard in BD PAMPA manual
  PAMPA permeability category: high permeability
